In experiment [1] the target is T1, EGFR L858R/T790M/C797S (BaF3-LTC cells) (Homo sapiens, UniProt P00533, C797S/L858R/T790M).
T1 construct: expressed in transfected cells; host or cells: BaF3
The experiment can be described thus: EGFR degradation HTRF assay, BaF3-LTC cells. Format: cell-based. The method, boiled down: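 EGFR remaining after a 16 h, 37 °C exposure (8 doses, 5-fold steps from 10 uM final, 0.2% DMSO) was quantified by HTRF antibodies in cell lysate. Percent inhibition relative to DMSO control was fitted by four-parameter logistic to give DC50; Dmax denotes maximal degradation.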
For orientation: TR-FRET usually uses a lanthanide donor and a delayed reading to cut background.

For experiment [2], the system named is EGFR Del19/T790M/C797S (H1975-clone #28). The experiment can be described thus: EGFR degradation HTRF assay, H1975-clone #28 DTC cells. Format: cell-based. The essentials:
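Compounds (top 10 uM, 5-fold, 8 points, 0.2% DMSO) incubated 16 h at 37 °C on homozygous clones: #23 Del19/C797S, #28 Del19/T790M/C797S, exogenous EGFR only in H1975. HTRF on lysates quantified remaining EGFR relative to DMSO; four-parameter fit gave DC50 and Dmax.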

The mark [3] stands for this setting: BaF3-LTC cells; EGFR degradation, IC50 (DC50) from curve fit; read-out: DC50(nM) BaF3-LTC.
Where [4] appears, read: BaF3-LTC cells; maximum percentage of inhibition (degradation); read-out: Dmax (%) BaF3-LTC.
Setting [5] is: H1975 # 28 DTC cells; EGFR degradation, IC50 (DC50) from curve fit; read-out: DC50(nM) H1975 # 28 DTC.
Where [6] appears, read: H1975 # 28 DTC cells; maximum percentage of inhibition (degradation).

SMILES strings stand for the structures. Like-named read-outs stand apart in the source and are kept apart here.

T1 sequence (P00533 25-1210 T790M/C797S/L858R): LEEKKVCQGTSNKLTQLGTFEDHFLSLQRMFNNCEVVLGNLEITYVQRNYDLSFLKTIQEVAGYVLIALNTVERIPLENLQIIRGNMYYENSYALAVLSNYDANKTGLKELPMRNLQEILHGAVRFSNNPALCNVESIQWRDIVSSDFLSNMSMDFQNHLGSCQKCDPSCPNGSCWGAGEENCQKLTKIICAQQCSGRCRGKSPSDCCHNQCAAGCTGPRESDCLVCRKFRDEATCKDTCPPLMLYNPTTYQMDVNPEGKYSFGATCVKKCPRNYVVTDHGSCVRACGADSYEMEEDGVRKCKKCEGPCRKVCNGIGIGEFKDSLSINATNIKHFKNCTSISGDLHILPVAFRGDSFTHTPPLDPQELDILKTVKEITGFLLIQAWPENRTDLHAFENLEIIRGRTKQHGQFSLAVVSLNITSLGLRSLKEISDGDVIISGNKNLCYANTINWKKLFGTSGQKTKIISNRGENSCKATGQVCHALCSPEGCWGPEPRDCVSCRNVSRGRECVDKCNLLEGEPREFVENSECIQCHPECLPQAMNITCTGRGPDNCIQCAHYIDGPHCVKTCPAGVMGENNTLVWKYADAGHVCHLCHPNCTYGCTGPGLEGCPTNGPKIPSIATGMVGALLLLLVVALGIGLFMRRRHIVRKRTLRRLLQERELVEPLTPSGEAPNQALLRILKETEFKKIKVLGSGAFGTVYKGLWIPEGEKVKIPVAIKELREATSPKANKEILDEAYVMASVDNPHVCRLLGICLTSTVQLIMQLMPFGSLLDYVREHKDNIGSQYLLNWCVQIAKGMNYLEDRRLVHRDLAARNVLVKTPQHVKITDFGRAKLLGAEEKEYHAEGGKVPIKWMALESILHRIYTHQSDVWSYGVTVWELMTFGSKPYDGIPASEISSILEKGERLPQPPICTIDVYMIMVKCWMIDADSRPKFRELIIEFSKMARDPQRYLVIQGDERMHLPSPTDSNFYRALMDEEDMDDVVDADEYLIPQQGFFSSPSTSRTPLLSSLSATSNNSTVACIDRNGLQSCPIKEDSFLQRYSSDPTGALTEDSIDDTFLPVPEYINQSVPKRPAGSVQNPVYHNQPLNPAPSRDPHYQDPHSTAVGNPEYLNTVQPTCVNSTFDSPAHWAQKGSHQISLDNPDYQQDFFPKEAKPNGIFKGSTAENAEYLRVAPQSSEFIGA

One may read the DC50 as the concentration at which degradation of the target reaches its halfway point. Usually Dmax stands for the largest share of the target that was removed. Consider `CCc1cc(Nc2ncc(Br)c(Nc3ccc4nc(C)ccc4c3P(C)(C)=O)n2)c(OC)cc1N1CCC(N2CCN(CC3CN(c4ccc5c(c4)oc(=O)n5C4CCC(=O)NC4=O)C3)CC2)CC1` (centres unmarked) [Example 537, 3-(6-(3-((4-(1-(4-((5-bromo-4-((5-(dimethylphosphoryl)-2-methylquinolin-6-yl)amino)pyrimidin-2-yl)amino)-2-ethyl-5-methoxyphenyl)piperidin-4-yl)piperazin-1-yl)methyl)azetidin-1-yl)-2-oxobenzo[d]oxazol-3(2H)-yl)piperidine-2,6-dione], for which the DC50 in experiment [1] (setting [3]) turned out to be 0.934 nM; in experiment [2] (setting [5]) it was 0.223 nM. The Dmax in experiment [1] (setting [4]) worked out at 94%. Further, the “Dmax (%) H1975 # 28 DTC” value in experiment [2] (setting [6]) stood at 65.01%.
`CCc1ccc2c(P(C)(C)=O)c(Nc3nc(Nc4cc(CC)c(N5CCC(N6CCN(C(=O)[C@@H]7CCN(c8cc(F)c([C@H]9CCC(=O)NC9=O)c(F)c8)C7)CC6)CC5)cc4OC(F)(F)F)ncc3Br)ccc2n1` [Example 649, (R)-3-(4-((R)-3-(4-(1-(4-((5-bromo-4-((5-(dimethylphosphoryl)-2-ethylquinolin-6-yl)amino)pyrimidin-2-yl)amino)-2-ethyl-5-(trifluoromethoxy)phenyl)piperidin-4-yl)piperazine-1-carbonyl)pyrrolidin-1-yl)-2,6-difluorophenyl)piperidine-2,6-dione]: the DC50 worked out at 31.8 nM in experiment [1] (setting [3]) and 6.94 nM in experiment [2] (setting [5]). Also, in experiment [1] (setting [4]), the Dmax turned out to be 78.6%. The “Dmax (%) H1975 # 28 DTC” value in experiment [2] (setting [6]) amounted to 75.95%.
For `CCc1cc(Nc2ncc(Br)c(Nc3ccc4nc(C)ccc4c3P(C)(C)=O)n2)c(OC)cc1N1CCC(N2CCN(C(=O)C3CCN(c4cc(F)c(C5CCC(=O)NC5=O)c(F)c4)CC3)CC2)CC1` (centres unmarked) [Example 517, 3-(4-(4-(4-(1-(4-((5-bromo-4-((5-(dimethylphosphoryl)-2-methylquinolin-6-yl)amino)pyrimidin-2-yl)amino)-2-ethyl-5-methoxyphenyl)piperidin-4-yl)piperazine-1-carbonyl)piperidin-1-yl)-2,6-difluorophenyl)piperidine-2,6-dione], the DC50 in experiment [1] (setting [3]) is 7 nM; in experiment [2] (setting [5]), 0.968 nM. In addition, in experiment [1] (setting [4]), the Dmax came out at 91.3%. Also, the “Dmax (%) H1975 # 28 DTC” value in experiment [2] (setting [6]) turned out to be 58.8%.
Take `CCOc1cc(N2CCC(N3CCN(CCc4cc(F)c([C@H]5CCC(=O)NC5=O)c(F)c4)CC3)CC2)c(CC)cc1Nc1ncc(Br)c(Nc2ccc3nc(CC)c(F)cc3c2P(C)(C)=O)n1` [Example 588, (R)-3-(4-(2-(4-(1-(4-((5-bromo-4-((5-(dimethylphosphoryl)-2-ethyl-3-fluoroquinolin-6-yl)amino)pyrimidin-2-yl)amino)-5-ethoxy-2-ethylphenyl)piperidin-4-yl)piperazin-1-yl)ethyl)-2,6-difluorophenyl)piperidine-2,6-dione]: the DC50 in experiment [1] (setting [3]) was found to be 18.4 nM; in experiment [2] (setting [5]) it was 1.94 nM. Also, in experiment [1] (setting [4]), the Dmax came to 87.5%. In addition, the “Dmax (%) H1975 # 28 DTC” value in experiment [2] (setting [6]) turned out to be 84.46%.
On the same counts, the results for `CCc1cc(Nc2ncc(Br)c(Nc3ccc4c(=O)n(C5CC5)ncc4c3P(C)(C)=O)n2)c(OC)cc1N1CCC(N2CCN(CCc3ccc4c(c3)oc(=O)n4C3CCC(=O)NC3=O)CC2)CC1` (centres unmarked) [Example 522, 3-(6-(2-(4-(1-(4-((5-bromo-4-((2-cyclopropyl-5-(dimethylphosphoryl)-1-oxo-1,2-dihydrophthalazin-6-yl)amino)pyrimidin-2-yl)amino)-2-ethyl-5-methoxyphenyl)piperidin-4-yl)piperazin-1-yl)ethyl)-2-oxobenzo[d]oxazol-3(2H)-yl)piperidine-2,6-dione] are 1.43 nM, 0.611 nM, 95.3% and 75.25%.
Regarding `CCOc1cc(N2CCC(N3CCN(CC4CN(c5cccc6c5n(C)c(=O)n6C5CCC(=O)NC5=O)C4)CC3)CC2)c(CC)cc1Nc1ncc(Br)c(Nc2ccc3c(=O)n(CC)ncc3c2P(C)(C)=O)n1` (centres unmarked) [Example 622, 3-(4-(3-((4-(1-(4-((5-bromo-4-((5-(dimethylphosphoryl)-2-ethyl-1-oxo-1,2-dihydrophthalazin-6-yl)amino)pyrimidin-2-yl)amino)-5-ethoxy-2-ethylphenyl)piperidin-4-yl)piperazin-1-yl)methyl)azetidin-1-yl)-3-methyl-2-oxo-2,3-dihydro-1H-benzo[d]imidazol-1-yl)piperidine-2,6-dione], the values for the DC50 in experiment [1] (setting [3]) and in experiment [2] (setting [5]) were 37.3 nM and 4.78 nM, respectively. Besides, the Dmax in experiment [1] (setting [4]) was 94%. In experiment [2] (setting [6]), the “Dmax (%) H1975 # 28 DTC” value is on record as 75.46%.
In the case of `CCOc1cc(N2CCC(N3CCN(CC4CN(c5cccc6c5oc(=O)n6C5CCC(=O)NC5=O)C4)CC3)CC2)c(CC)cc1Nc1ncc(Br)c(Nc2cc(F)c3nc(CC)ccc3c2P(C)(C)=O)n1` (centres unmarked) [Example 562, 3-(7-(3-((4-(1-(4-((5-bromo-4-((5-(dimethylphosphoryl)-2-ethyl-8-fluoroquinolin-6-yl)amino)pyrimidin-2-yl)amino)-5-ethoxy-2-ethylphenyl)piperidin-4-yl)piperazin-1-yl)methyl)azetidin-1-yl)-2-oxobenzo[d]oxazol-3(2H)-yl)piperidine-2,6-dione], the DC50 amounted to 7.47 nM in experiment [1] (setting [3]) and 1.54 nM in experiment [2] (setting [5]). The Dmax in experiment [1] (setting [4]) is 90.2%. In addition, the “Dmax (%) H1975 # 28 DTC” value in experiment [2] (setting [6]) came to 77.73%.
As to `CCOc1cc(N2CCC(N3CCN(C(=O)[C@H]4CN(c5cc(F)cc6c5oc(=O)n6C5CCC(=O)NC5=O)CC4(C)C)CC3)CC2)c(CC)cc1Nc1ncc(Br)c(Nc2ccc3nc(CC)ccc3c2P(C)(C)=O)n1` (stereo partly drawn) [Example 480, 3-(7-((R)-4-(4-(1-(4-((5-bromo-4-((5-(dimethylphosphoryl)-2-ethylquinolin-6-yl)amino)pyrimidin-2-yl)amino)-5-ethoxy-2-ethylphenyl)piperidin-4-yl)piperazine-1-carbonyl)-3,3-dimethylpyrrolidin-1-yl)-5-fluoro-2-oxobenzo[d]oxazol-3(2H)-yl)piperidine-2,6-dione], the DC50 stood at 18.9 nM in experiment [1] (read-out: DC50(nM) BaF3-LTC; BaF3-LTC cells; EGFR degradation, IC50 (DC50) from curve fit) and 7.82 nM in experiment [2] (read-out: DC50(nM) H1975 # 28 DTC; H1975 # 28 DTC cells; EGFR degradation, IC50 (DC50) from curve fit). Besides, in experiment [1] (read-out: Dmax (%) BaF3-LTC, BaF3-LTC cells; maximum percentage of inhibition (degradation)), the Dmax worked out at 89.4%. The “Dmax (%) H1975 # 28 DTC” value in experiment [2] (setting [6]) came to 69.54%.
As for `CCc1ccc2c(P(C)(C)=O)c(Nc3nc(Nc4cc(CC)c(N5CCC(N6CCN(CC7CN(c8cc(F)cc9c8oc(=O)n9C8CCC(=O)NC8=O)C7)CC6)CC5)cc4OC)ncc3Br)ccc2n1` (centres unmarked) [Example 449, 3-(7-(3-((4-(1-(4-((5-bromo-4-((5-(dimethylphosphoryl)-2-ethylquinolin-6-yl)amino)pyrimidin-2-yl)amino)-2-ethyl-5-methoxyphenyl)piperidin-4-yl)piperazin-1-yl)methyl)azetidin-1-yl)-5-fluoro-2-oxobenzo[d]oxazol-3(2H)-yl)piperidine-2,6-dione], the half-maximal degradation concentration (DC50) in experiment [1] (setting [3]) came to 2.99 nM; in experiment [2] (setting [5]) it was 0.937 nM. The Dmax in experiment [1] (setting [4]) is 89.9%. Moreover, in experiment [2] (setting [6]), the “Dmax (%) H1975 # 28 DTC” value amounted to 85.59%.
Take `CCc1cc(Nc2ncc(Br)c(Nc3ccc4ccnnc4c3P(C)(C)=O)n2)c(OC)cc1N1CCC(N2CCN(C(=O)[C@@H]3CCN(c4cc(F)c([C@H]5CCC(=O)NC5=O)c(F)c4)C3)CC2)CC1` [Example 656, (R)-3-(4-((R)-3-(4-(1-(4-((5-bromo-4-((8-(dimethylphosphoryl)cinnolin-7-yl)amino)pyrimidin-2-yl)amino)-2-ethyl-5-methoxyphenyl)piperidin-4-yl)piperazine-1-carbonyl)pyrrolidin-1-yl)-2,6-difluorophenyl)piperidine-2,6-dione]: the DC50 stood at 5.22 nM in experiment [1] (setting [3]) and 1.66 nM in experiment [2] (setting [5]). In addition, the Dmax in experiment [1] (setting [4]) was determined as 83.6%. Further, the “Dmax (%) H1975 # 28 DTC” value in experiment [2] (setting [6]) came to 83.91%.
Turning to `CCc1ccc2c(P(C)(C)=O)c(Nc3nc(Nc4cc(CC)c(N5CCC(C6CCN(CCc7cc(F)c([C@H]8CCC(=O)NC8=O)c(F)c7)CC6)CC5)cc4OC)ncc3Br)ccc2n1` [Example 745, (R)-3-(4-(2-(1′-(4-((5-bromo-4-((5-(dimethylphosphoryl)-2-ethylquinolin-6-yl)amino)pyrimidin-2-yl)amino)-2-ethyl-5-methoxyphenyl)-[4,4′-bipiperidin]-1-yl)ethyl)-2,6-difluorophenyl)piperidine-2,6-dione], the results for the DC50 in experiment [1] (setting [3]) and in experiment [2] (setting [5]) were 40.3 nM and 2.25 nM, respectively. For the same molecule, the “Dmax (%) H1975 # 28 DTC” value in experiment [2] (setting [6]) worked out at 75.21%.
Consider `CCc1ccc2c(P(C)(C)=O)c(Nc3nc(Nc4cc(CC)c(N5CCC(N6CCN(C(=O)[C@@H]7CCN(c8cc(F)c([C@H]9CCC(=O)NC9=O)c(F)c8)C7)CC6)CC5)cc4OC4CC4)ncc3Br)ccc2n1` [Example 655, (R)-3-(4-((R)-3-(4-(1-(4-((5-bromo-4-((5-(dimethylphosphoryl)-2-ethylquinolin-6-yl)amino)pyrimidin-2-yl)amino)-5-cyclopropoxy-2-ethylphenyl)piperidin-4-yl)piperazine-1-carbonyl)pyrrolidin-1-yl)-2,6-difluorophenyl)piperidine-2,6-dione], for which the DC50 stood at 16.4 nM in experiment [1] (setting [3]) and 4.21 nM in experiment [2] (setting [5]). Moreover, in experiment [1] (setting [4]), the Dmax was found to be 90.2%. For the same molecule, the “Dmax (%) H1975 # 28 DTC” value in experiment [2] (setting [6]) was 81.86%.

The values are drawn from patent publication US20230265116A1, “DEGRADATION OF (EGFR) BY CONJUGATION OF EGFR INHIBITORS WITH E3 LIGASE LIGAND AND METHODS OF USE” (BEIGENE, LTD., priority 2020, published 2023).
